Experimental data as given in patent US20250354127A1, “CRYOPRESERVED DAIRY GOAT SEMEN METABOLITE SCREENING AND DILUENT PREPARATION METHOD” (NORTHWEST A&F UNIVERSITY, priority 2024, published 2025).
Marks after values point to notes of the source that are not given here.

Columns and labels:
dairy goat sperms = assay: Sperm viability and motility by CASA semen assisted analysis during preservation at 4 degrees C.; type: cell-based
Procedure: 1) prepare base diluent: add 30.3 g/L Tris, 16.0 g/L citric acid, 6.4 g/L glucose, 6.4 g/L D-fructose, 2.5 g/L trehalose, 1.0 g/L BSA and 3.75 g/L soybean lecithin into distilled water to 1 L, dissolve in a water bath for 1 hour at 37 degrees C., filter and sterilize, and then add 1 million IU/L penicillin and 1 million IU/L streptomycin; select semen with motility more than 80% for preservation, and keep diluent warm in a water bath at 37 degrees C. before semen dilution; gradually dilute at the dilution ratio (add the diluent into each group of semen along the tube wall during the operation), dilute the semen with the diluent at 1:1 and stand for 3 minutes, then dilute the semen with the diluent at 1:3 and stand for 3 minutes, and let the ratio of semen to diluent reach 1:7 (keep the temperature at 33-35 degrees C. during dilution); bind a centrifuge tube containing the diluted semen with a rubber band and put the centrifuge tube into a beaker containing isothermal water, keep the centrifuge tube vertical and the water level in the beaker higher than the diluent level of in the centrifuge tube, place for 1 hour at room temperature, put the beaker into a refrigerator at 4 degrees C., keep the cooling rate at 8-10 degrees C./h, and shake the centrifuge tube every 8 hours to prevent the sperms from accumulating, sinking to bottom and resulting in death;
2) take 5 μL of semen on the days 0, 1, 3 and 5 of semen preservation, put the semen on slides, preheat an objective table and perform microscopic examination at 37 degrees C., and detect semen motility and viability by Meilan CASA semen assisted analysis system; select at least five random fields of view for determination, with a minimum semen count of 200 in each field; the ratio of number of live sperms to total number of sperms is sperm viability, and the ratio of number of linearly moving sperms to total number of sperms is sperm motility. Average the results, and record the test data (see Table 1);
(§1) 1) add different concentrations of gamma-aminobutyric acids into a tupping ram semen base diluent, and take a group without gamma-aminobutyric acid added as the control group; take a group with gamma-aminobutyric acid added as the experimental group, the addition concentrations are respectively 0.5 g/L, 1.0 g/L, 1.5 g/L and 2.0 g/L, and six duplications exist in each group; screen out the optimal concentration of gamma-aminobutyric acid according to semen quality indexes, set the optimal concentration to T group, and detect the semen membrane and acrosome integrity, various antioxidant enzyme activities and ROS content change after adding the optimal concentration of gamma-aminobutyric acid;

[1] = Sperm plasma membrane integrity (PMI) by SYBR-14/PI fluorescence staining; type: cell-based, dairy goat
Excerpt: as §1

tupping ram sperms = assay: Sperm acrosome integrity (CGI) by FITC-PNA fluorescence staining; type: cell-based, dairy goat
Excerpt: as §1

sperms = assay: Antioxidant indexes of sperms (T-AOC, SOD, GSH-Px, MDA, CAT, ROS) by Solarbio kits; type: cell-based, dairy goat
Excerpt: as §1

[2] = 0.5 g/L in base diluent, Day 5 at 4 degrees C.
[3] = 1.0 g/L in base diluent, Day 5 at 4 degrees C.
[4] = 1.5 g/L in base diluent, Day 5 at 4 degrees C.
[5] = 2.0 g/L in base diluent, Day 5 at 4 degrees C.
[6] = experimental group, day 5 of preservation at 4 degrees C.
[7] = optimal concentration (T group), day 3 of preservation at 4 degrees C., P<0.05
[8] = preservation day not given, P<0.05

NCCCC(=O)O [gamma-aminobutyric acid, Gamma-aminobutyric acid]
Semen motility % (dairy goat sperms; 0.5 g/L in base diluent, Day 0): 81.36 ± 2.05%
Sperm viability % (dairy goat sperms; 0.5 g/L in base diluent, Day 0): 84.12 ± 2.15%
Semen motility % (dairy goat sperms; [2]): 50.69 ± 1.05^b %
Sperm viability % (dairy goat sperms; [2]): 52.45 ± 1.22^b %
Sperm motility compared with other addition groups (dairy goat sperms; 1 g/L): higher than those in other addition groups
Sperm viability compared with other addition groups (dairy goat sperms; 1 g/L): higher than those in other addition groups
Semen motility % (dairy goat sperms; 1.0 g/L in base diluent, Day 0): 81.36 ± 2.05%
Sperm viability % (dairy goat sperms; 1.0 g/L in base diluent, Day 0): 84.12 ± 2.15%
Semen motility % (dairy goat sperms; [3]): 53.69 ± 0.84^a %
Sperm viability % (dairy goat sperms; [3]): 56.49 ± 1.32^a %
Semen motility % (dairy goat sperms; 1.5 g/L in base diluent, Day 0): 81.36 ± 2.05%
Sperm viability % (dairy goat sperms; 1.5 g/L in base diluent, Day 0): 84.12 ± 2.15%
Semen motility % (dairy goat sperms; [4]): 47.32 ± 2.41^c %
Sperm viability % (dairy goat sperms; [4]): 50.52 ± 2.74^b %
Semen motility % (dairy goat sperms; 2.0 g/L in base diluent, Day 0): 81.36 ± 2.05%
Sperm viability % (dairy goat sperms; 2.0 g/L in base diluent, Day 0): 84.12 ± 2.15%
Semen motility % (dairy goat sperms; [5]): 45.55 ± 1.52^d %
Sperm viability % (dairy goat sperms; [5]): 45.36 ± 2.31^c %
Plasma membrane integrity of sperms [1, 6]: 58.93%
Plasma membrane integrity of sperms, T group vs NC group [1, 7]: significantly higher
Acrosome integrity of sperms (tupping ram sperms; [6]): 60.12%
Acrosome integrity of sperms, T group vs NC group (tupping ram sperms; [7]): significantly higher
GSH-Px, T group vs NC group (sperms; day 1 of preservation): not significantly different
MDA, T group vs NC group (sperms; day 1 of preservation): not significantly different
T-AOC, T group vs NC group (sperms; day 1 of preservation): not significantly different
CAT enzyme activity, T group vs NC group (sperms; day 1 of preservation, P<0.05): significantly increased
Level of ROS, T group vs NC group (sperms; day 1 of preservation, P<0.05): significantly decreased
SOD enzyme activity, T group vs NC group (sperms; day 1 of preservation, P<0.05): significantly increased
Level of CAT, T group vs NC group (sperms; [8]): significantly higher
Level of GSH-Px, T group vs NC group (sperms; [8]): significantly higher
Level of MDA, T group vs NC group (sperms; [8]): significantly lower
Level of ROS, T group vs NC group (sperms; [8]): significantly lower
Level of SOD, T group vs NC group (sperms; [8]): significantly higher
Level of T-AOC, T group vs NC group (sperms; [8]): significantly higher
